Measured values as given in the supplement of paper PMC13380429.

Columns and labels:
[1] = system: A549-ACE2; test: phospholipidosis EC50; higher = less potent phospholipidosis inducer
[2] = system: A549-ACE2 infected with SARS-CoV-2; test: morphology score (similarity to uninfected cells); higher = more like uninfected cells; conditions: 24 h
[3] = system: Calu-3; test: relative viability EC50 (midpoint between 100% and the lowest measured viability); higher = less toxic; conditions: 72 h
[4] = system: Caco-2; test: as above; conditions: 72 h
[5] = system: U2OS; test: as above; conditions: 72 h
[6] = system: Vero E6; test: as above; conditions: 72 h
[7] = system: HepG2; test: as above; conditions: 72 h
[8] = system: A549-ACE2 infected with SARS-CoV-2; test: SARS-CoV-2 infection rate relative to DMSO; higher = more infection; conditions: 24 h
[9] = system: Calu-3; test: cell viability relative to DMSO; higher = less toxic; conditions: 72 h
[10] = system: Caco-2; test: as above; conditions: 72 h
[11] = system: U2OS; test: as above; conditions: 72 h
[12] = system: Vero E6; test: as above; conditions: 72 h
[13] = system: HepG2; test: as above; conditions: 72 h
[14] = system: Calu-3; test: drug sensitivity score (DSS) for viability; higher = more toxic; extreme values may be limits of the assay; conditions: 72 h
[15] = system: Caco-2; test: as above; conditions: 72 h
[16] = system: U2OS; test: as above; conditions: 72 h
[17] = system: Vero E6; test: as above; conditions: 72 h
[18] = system: HepG2; test: as above; conditions: 72 h
[19] = system: A549-ACE2 infected with SARS-CoV-2; test: cell count relative to DMSO; higher = less toxic; conditions: 24 h
[20] = system: A549-ACE2; test: drug-induced phospholipidosis relative to tamoxifen; higher = more phospholipidosis

CC/C(=C(/c1ccc(OCCN(C)C)cc1)c1cccc(O)c1)c1ccccc1 [droloxifene]
Conditions	SARS-CoV-2 infection rate [%]	cell count [%]	cell viability [%]	morphology score	phospholipidosis EC50 [µM]
[1], 24 h	–	–	–	–	1.57
[1], 48 h	–	–	–	–	3.25
[1], 72 h	–	–	–	–	3.45
[2], 0.3 µM	–	–	–	0.24	–
[2], 3 µM	–	–	–	0.61	–
[2], 10 µM	–	–	–	0.81	–
[2], 30 µM	–	–	–	0.15	–
[8], 0.3 µM	93	–	–	–	–
[8], 3 µM	64	–	–	–	–
[8], 10 µM	13	–	–	–	–
[8], 30 µM	39	–	–	–	–
[9], 1 nM	–	–	100	–	–
[9], 10 nM	–	–	96.2	–	–
[9], 100 nM	–	–	98.7	–	–
[9], 1000 nM	–	–	87.1	–	–
[9], 10000 nM	–	–	11	–	–
[10], 1 nM	–	–	100	–	–
[10], 10 nM	–	–	97.1	–	–
[10], 100 nM	–	–	92.5	–	–
[10], 1000 nM	–	–	97.4	–	–
[10], 10000 nM	–	–	43.8	–	–
[11], 1 nM	–	–	97.7	–	–
[11], 10 nM	–	–	91.5	–	–
[11], 100 nM	–	–	102	–	–
[11], 1000 nM	–	–	96	–	–
[11], 10000 nM	–	–	75.5	–	–
[12], 1 nM	–	–	95.8	–	–
[12], 10 nM	–	–	99.1	–	–
[12], 100 nM	–	–	93.7	–	–
[12], 1000 nM	–	–	95.8	–	–
[12], 10000 nM	–	–	92.6	–	–
[13], 1 nM	–	–	87.1	–	–
[13], 10 nM	–	–	101	–	–
[13], 100 nM	–	–	96.9	–	–
[13], 1000 nM	–	–	109	–	–
[13], 10000 nM	–	–	48.8	–	–
[19], 0.3 µM	–	102	–	–	–
[19], 3 µM	–	113	–	–	–
[19], 10 µM	–	110	–	–	–
[19], 30 µM	–	102	–	–	–

Conditions	drug sensitivity score	relative viability EC50 [µM]
[3]	–	2.02
[4]	–	2.8
[5]	–	> 10
[6]	–	> 10
[7]	–	3.84
[14]	7.1	–
[15]	3.4	–
[16]	1.5	–
[17]	0	–
[18]	2.2	–

drug-induced phospholipidosis [%], [20]
Conditions	0.3 µM	0.833333 µM	3.33333 µM	6.66667 µM	10 µM	30 µM
24 h	2.02	14.1	52.7	74.9	75.2	51.7
48 h	8.07	8.41	50.9	81.7	87.7	–
72 h	3.83	3.63	41.9	82	85.5	–

NS(=O)(=O)C#Cc1ccccc1 [pifithrin-mu]
Conditions	SARS-CoV-2 infection rate, [8] [%]	cell count, [19] [%]	cell viability, [9] [%]	cell viability, [10] [%]	cell viability, [11] [%]	cell viability, [12] [%]	cell viability, [13] [%]	morphology score, [2]
1 nM	–	–	107	97.2	99.8	100	104	–
10 nM	–	–	99	100	97.5	95.5	89.3	–
0.1 µM	104	98	–	–	–	–	–	-0.1
100 nM	–	–	98.4	102	97.2	94.4	91.1	–
0.3 µM	106	98	–	–	–	–	–	-0.19
1 µM	90	101	–	–	–	–	–	0.29
1000 nM	–	–	111	92.4	95.7	98.4	104	–
3 µM	101	99	–	–	–	–	–	-0.06
10000 nM	–	–	89.7	37.8	20	77.9	54.3	–

Conditions	drug sensitivity score	relative viability EC50 [µM]
[3]	–	> 10
[4]	–	2.17
[5]	–	2.75
[6]	–	> 10
[14]	0	–
[15]	4.7	–
[16]	5	–
[17]	1	–
[18]	2	–

drug-induced phospholipidosis [%], [20]
Conditions	0.3 µM	0.833333 µM	3.33333 µM	6.66667 µM	10 µM	30 µM
24 h	2.1	0.49	1.97	5.31	12.1	-1.3
48 h	2.3	-0.12	0.23	3.31	7.4	–
72 h	3.99	-0.0686	0.345	0.553	1.82	–
